Activity and Ki data for 5 compounds are collected here from ChEMBL document CHEMBL2073836, “Interactions of nonsteroidal anti-inflammatory drugs with rat renal organic anion transporter, OAT-K1” (J Pharmacol Exp Ther, 1997).

Structures are written as SMILES.

Holding throughout (type): functional, cell-based
For series [1], the target named is T1, Solute carrier organic anion transporter family member 1A3 (Rattus norvegicus, UniProt P70502).
T1 sequence (P70502 whole entry): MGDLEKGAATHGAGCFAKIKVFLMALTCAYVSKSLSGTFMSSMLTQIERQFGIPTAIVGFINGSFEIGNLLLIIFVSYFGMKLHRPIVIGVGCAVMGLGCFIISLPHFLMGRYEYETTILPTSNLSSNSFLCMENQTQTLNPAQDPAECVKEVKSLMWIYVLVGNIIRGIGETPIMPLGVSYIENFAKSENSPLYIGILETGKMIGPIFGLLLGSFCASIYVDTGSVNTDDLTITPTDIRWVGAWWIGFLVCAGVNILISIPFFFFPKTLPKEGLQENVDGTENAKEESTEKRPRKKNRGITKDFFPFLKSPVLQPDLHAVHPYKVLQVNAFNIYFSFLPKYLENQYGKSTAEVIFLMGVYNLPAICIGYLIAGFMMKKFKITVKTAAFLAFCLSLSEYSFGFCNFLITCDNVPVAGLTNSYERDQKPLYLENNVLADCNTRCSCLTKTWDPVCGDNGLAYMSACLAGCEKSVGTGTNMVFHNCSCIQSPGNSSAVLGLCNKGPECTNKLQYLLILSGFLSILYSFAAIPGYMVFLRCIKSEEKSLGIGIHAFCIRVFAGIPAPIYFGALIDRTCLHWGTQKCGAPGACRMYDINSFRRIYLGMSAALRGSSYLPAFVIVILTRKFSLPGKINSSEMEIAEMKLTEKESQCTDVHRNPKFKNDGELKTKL
The experiment in a line: TP_TRANSPORTER: inhibition of MTX uptake (MTX: 0.1 uM, Flufenamate: 1000 uM) in OAT-K1-expressing LLC-PK1 cells. The note with it: pig, llc-pk1, 1000 µM.

In series [2] the target is T1, Solute carrier organic anion transporter family member 1A3. Kind of series: TP_TRANSPORTER: inhibition of MTX uptake (MTX: 0.1 uM, Ibuprofen: 1000 uM) in OAT-K1-expressing LLC-PK1 cells. The following applies: pig, llc-pk1, 1000 µM.
Series [3] shares this target. Kind of series: TP_TRANSPORTER: inhibition of MTX uptake in OAT-K1-expressing LLC-PK1 cells.
The target is the same in series [4]. Kind of series: TP_TRANSPORTER: inhibition of MTX uptake (MTX: 0.1 uM, Phenylbutazone: 1000 uM) in OAT-K1-expressing LLC-PK1 cells. The following applies: pig, llc-pk1, 1000 µM.

With `O=C(O)c1ccccc1Nc1cccc(C(F)(F)F)c1` [FLUFENAMIC ACID], the Activity entry in series [1] is “inhibitor [(at a rough estimate) 55 % of control]”. With `CC(C)Cc1ccc(C(C)C(=O)O)cc1` (stereo not given) [IBUPROFEN], the Activity result in series [2] was “inhibitor [(at a rough estimate) 65 % of control]”. For orientation: Ki means the dissociation constant of the complex between target and ligand, obtained from inhibition or displacement. The low end stands for tighter binding, the high end for weaker binding. Consider `COc1ccc2c(c1)c(CC(=O)O)c(C)n2C(=O)c1ccc(Cl)cc1` [INDOMETHACIN], for which, in series [3], the inhibition constant Ki was 1000 µM. Consider `CC(C(=O)O)c1cccc(C(=O)c2ccccc2)c1` (stereo not given) [KETOPROFEN], for which the affinity in series [3], expressed as Ki, was 1900 µM.

For `CCCCC1C(=O)N(c2ccccc2)N(c2ccccc2)C1=O` [PHENYLBUTAZONE], the Activity result in series [4] is “inhibitor [(at a rough estimate) 70 % of control]”.
